Measurements taken from US5516936A, “Inhibitors of kynureninase” (University of Georgia Research Foundation, Inc., priority 1993, dated 1996).
Entries after “also recorded” stand apart in the source; their conditions may differ. Where two headings read alike, the source gives them in different places.

Legend:
kynureninase [1] = settings: cited from earlier work
Kynureninase [2] = biological target: T1, Kynureninase (Pseudomonas fluorescens, UniProt P83788); assay: Competitive inhibition of kynureninase by S-aryl cysteines and S-aryl cysteine sulfones; assay type: biochemical; settings: Table 1; competitive inhibition vs L-kynurenine, pH 7.8, 25° C.; footnote 1: 0.07 is an upper limit; read-out: Ki
T1 construct: Bacterial kynureninase was prepared from cells of Pseudomonas fluorescens; endogenous in cells; partially purified by DEAE-cellulose and ammonium sulfate
T1 sequence (P83788 1-416): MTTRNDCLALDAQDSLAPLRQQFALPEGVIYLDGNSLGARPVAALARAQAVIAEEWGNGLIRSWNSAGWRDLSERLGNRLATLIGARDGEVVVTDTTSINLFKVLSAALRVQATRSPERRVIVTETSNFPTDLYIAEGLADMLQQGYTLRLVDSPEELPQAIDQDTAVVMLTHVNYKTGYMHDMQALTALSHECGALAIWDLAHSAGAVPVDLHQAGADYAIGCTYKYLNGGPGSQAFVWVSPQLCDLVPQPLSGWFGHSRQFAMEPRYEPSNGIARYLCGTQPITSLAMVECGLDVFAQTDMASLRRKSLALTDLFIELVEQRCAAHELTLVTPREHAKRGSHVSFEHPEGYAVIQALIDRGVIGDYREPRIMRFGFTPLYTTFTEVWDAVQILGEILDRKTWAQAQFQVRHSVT
Procedure: (§1) Bacterial kynureninase was prepared from cells of Pseudomonas fluorescens (ATCC 11250, for example) essentially as described by .Hayaishi and Stanier (1952) J. Biol. Chem. 195:735-740. Cells were grown on a minimal medium containing 0.1% L-tryptophan as the sole carbon and nitrogen source.
(§2) From 100 1 of medium, grown for 18 h at 30° C. 230 g of wet cell paste was obtained. The cells were suspended in 1 of 0.01M potassiumphosphate, pH 7.0, and disrupted by 2 passages through a Manton-Gaulin homogenizer. After centrifugation of the cell extract for 1 h at 10000 g, the enzyme was partially purified by ion-exchange chromatography on DEAE-cellulose and ammonium sulfate precipitation.
Kynureninase activity was measured at 25° C. by following the decrease in absorbance at 360 nm (ε=-4500M^-1 cm^-1). A typical assay mixture contained 0.4 mM L-kynurenine in 0.04M potassium phosphate, pH 7.8, containing 40 μM pyridoxal-5'-phosphate, at 25° C. The reactions of S-aryl cysteines and S-aryl cysteine sulfones with kynureninase were performed using a spectrophotometric coupled assay with lactate dehydrogenase and NADH, by monitoring a decrease in absorbance due to pyruvate formation. A typical assay mixture contained 30 μl lactate dehydrogenase solution (2 mg/ml), 0.1 mM NADH, 40 μM pyridoxal-5'-phosphate, 0.04M tris.HCl buffer, pH 7.8, with varying concentrations of the compounds. The competitive inhibition of these compounds was measured by variation of L-kynurenine concentrations at several fixed values of the inhibitor. Km and Vmax values were calculated by fitting of initial rate data to the Michaelis-Menten equation with ENZFITTER (Elsevier) on a Z-286 personal computer. KI values were determined from the equation:
v=Vmax[S]/ (Km (1+[I]/Ki)+[S]

bacterial kynureninase [3] = settings: Kishore (1984), cited from earlier work
rat renal C-S lyase = settings: kidney slice methodology; cited from earlier work
cystsine lyase = settings: cited from earlier work
bacterial kynureninase [4] = settings: Tanizawa and Soda (1979); cited from earlier work
kynureninase [5] = settings: Takeuchi et al. (1980); cited from earlier work
rat liver kynureninase [6] = biological target: T2, rat liver kynureninase (Rattus norvegicus, UniProt P70712); settings: cited from earlier work
T2 construct: host or cells: rat liver
T2 sequence (P70712 1-464): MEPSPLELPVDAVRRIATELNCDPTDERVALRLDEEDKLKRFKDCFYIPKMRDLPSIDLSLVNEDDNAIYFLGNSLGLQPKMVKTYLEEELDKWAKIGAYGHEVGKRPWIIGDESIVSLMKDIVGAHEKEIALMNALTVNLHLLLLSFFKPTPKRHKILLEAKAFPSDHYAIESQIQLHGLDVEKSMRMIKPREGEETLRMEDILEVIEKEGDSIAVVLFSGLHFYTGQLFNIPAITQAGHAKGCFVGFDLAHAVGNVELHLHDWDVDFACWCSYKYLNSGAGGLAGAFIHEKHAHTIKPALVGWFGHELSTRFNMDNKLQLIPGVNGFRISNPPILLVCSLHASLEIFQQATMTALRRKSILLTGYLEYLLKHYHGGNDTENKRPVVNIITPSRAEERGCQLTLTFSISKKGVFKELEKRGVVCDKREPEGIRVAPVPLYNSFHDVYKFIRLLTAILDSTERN

Kynureninase [7] = biological target: T1, Kynureninase; assay: Inhibition of bacterial kynureninase by dihydrokynurenine; assay type: biochemical; settings: for inhibition of reaction with L-kynurenine (in words): bacterial kynureninase; for Ki value (comparison in words): compared between dihydrokynurenine diastereomers
Procedure: As an extension of these mechanistic studies, the reactivities of dihydrokynurenine diastereomers were examined. […] This increased affinity of (αS,γS)-dihydrokynurenine is characteristic of mechanism-based, or "transition-state analogue" inhibitors.
as §1, §2
Inhibition of kynureninase by dihydrokynurenine was measured by including the potential inhibitor in the enzyme assay mixture (see Example 1 and Tanzawa and Soda (1979) supra) and determining the apparent Km for L-kynurenine (the preferred substrate of bacterial kynurenine) in the absence and presence of the potential inhibitor. Ki values were then calculated using the standard equation: […]
Inhibition of kynureninase by the (αS,γR)- and (αS,γS)-diastereomers of dihydrokynurenine was examined and Ki 's were determined. […] The Ki value for the […] was lower than for the (αS,γR)-diastereomer.

Kynureninase [8] = biological target: T1, Kynureninase; assay: Reactivity of dihydrokynurenine and L-kynurenine with bacterial kynureninase; assay type: biochemical; settings: pH 8.0, 25°; for reactivity with kynureninase (in words): o-aminobenzaldehyde formation at 360 nm
Procedure: as §1
as §2, with “230 g of wet cell paste was obtained.” left out
The reactivity of the two dihydrokynurenines with kynureninase in 0.1M potassium phosphate buffer, pH 8.0, at 25° was examined. Reaction was followed by the appearance of o-aminobenzaldehyde, as determined spectrophotometrically by the increase in absorbance at 360 nm (See Tanizawa and Soda (1979) Biochem. (Tokyo) 86:1199-1209, which is incorporated by reference herein).

rat liver kynureninase [9] = biological target: T2, rat liver kynureninase; assay: Inhibition of rat liver kynureninase (cysteine conjugate β-lyase activity with S-(2-benzothiazolyl)cysteine); assay type: biochemical; settings: S-(2-benzothiazolyl)cysteine as substrate
Procedure: Inhibition of mammalian kynureninase can be measured using several different assays for enzyme activity. Rat liver kynureninase is obtained from homogenization of rat liver, followed by precipitation with (NH4)2 SO4, as described by Stevens, J. L., J. Biol. Chem. (1985) 260:7945-7950, which is incorporated by reference herein. The activity of rat liver kynureninase was assessed by measurement of the cysteine conjugate β-lyase activity, as described by Stevens (supra), with S-(2-benzothiazolyl)cysteine, a nonphysiological chromophoric substrate. Inhibition of kynureninase by the dihydrokynurenine diastereomers was assessed with respect to reaction with that substrate.

[10] = system: cystsine conjugate β-lyase; settings: cited from earlier work
[11] = substrate: Nc1ccccc1C(=O)C[C@H](N)C(=O)O; assay: Reactivity of dihydrokynurenine and L-kynurenine with bacterial kynureninase; assay type: biochemical, Pseudomonas fluorescens; settings: other: L-kynurenine, present work, 30.0 °C

NC(C(=O)O)C(F)(F)C(=O)c1ccccc1 (stereo not drawn) [2,2-difluoro-α-benzoyl alanine, α-amino-β,β-difluoro-γ-oxobenzene butanoic acid]
inhibition of kynureninase (in words) (kynureninase [1]): competitive inhibitor of kynureninase

N[C@@H](CSc1ccccc1[N+](=O)[O-])C(=O)O [S-(2-nitrophenyl)-L-cysteine]
Ki (Kynureninase [2]): 100 µM | Ki (bacterial kynureninase [3]): 100 µM | inactivation of kynureninase (in words) (bacterial kynureninase [3]): inactivates kynureninase; also recorded: most efficient suicide substrate at low concentrations; also recorded: suicide inhibitor of kynureninase | reaction with kynureninase (in words) (bacterial kynureninase [3]): react with kynureninase to give pyruvate and ammonia | inactivation of kynureninase (in words) (bacterial kynureninase [3]; listed as S-(2-nitrophenyl)-L-cystsine): inactivated kynureninase | inhibition of C-S lyase (in words) (rat renal C-S lyase): inhibit

NO [H2 NOH]
inhibition of cystsine lyase (in words) (cystsine lyase): significantly inhibited

CC(=O)N[C@@H](CSc1ccc([N+](=O)[O-])c([N+](=O)[O-])c1)C(=O)O [N-acetyl-S-(3,4-dinitrophenyl)-L-cystsine]
inhibition of C-S lyase (in words) (rat renal C-S lyase): inhibit

CC(=O)N[C@@H](CSc1ccc([N+](=O)[O-])cc1Cl)C(=O)O [N-acetyl-S-(2-chloro-4-nitrophenyl)-L-cysteine]
inhibition of C-S lyase (in words) (rat renal C-S lyase): inhibit

Nc1ccccc1C(=O)O [anthranilic acid]
inhibition of bacterial kynureninase (in words) (bacterial kynureninase [4]): inhibitors | inhibition of kynureninase (in words) (kynureninase [5]): inhibit the enzyme

N[C@@H](CSc1nc2ccccc2s1)C(=O)O [S-2-(benzothiazolyl)-L-cysteine]
cleavage by rat liver kynureninase (in words) (rat liver kynureninase [6]): cleavage of S-2-(benzothiazolyl)-L-cysteine to give 2-mercaptobenzothiazole, pyruvate and ammonia

Nc1ccccc1[C@H](O)C[C@H](N)C(=O)O [(αS,γR)-dihydrokynurenine, (αS;γR)-α,2-diamino-γ-hydroxybenzenebutanoic acid]
inhibition of reaction with L-kynurenine (in words) (Kynureninase [7]; listed as (αS,γR)-diastereomer): strongly inhibited; also recorded: competitive inhibitors | Ki value (comparison in words) (Kynureninase [7]): lower | Ki (Kynureninase [7]; competitive with respect to L-kynurenine): 5 µM | rate of reaction relative to L-kynurenine (Kynureninase [8]; 0.1M potassium phosphate buffer): about 5% | reactivity with kynureninase (in words) (Kynureninase [8]): reacted slowly with kynureninase | reactivity with kynureninase (in words) (Kynureninase [8]; listed as (αS,γR)-Dihydrokynurenine): slow substrate | inhibition of rat liver kynureninase (in words) (rat liver kynureninase [9]): inhibit the reaction of rat liver kynureninase

Nc1c(O)cccc1C(=O)O [3-hydroxyanthranilate, 3-hydroxyanthranilic acid]
inhibition of kynureninase (in words) (kynureninase [5]): inhibit the enzyme

Nc1ccccc1[C@@H](O)C[C@H](N)C(=O)O [(αS,γS)-dihydrokynurenine, (αS,γS)-α,2-diamino-γ-hydroxybenzenebutanoic acid]
binding relative to L-kynurenine (in words) (Kynureninase [7]): binds about more tightly than does L-kynurenine | inhibition of reaction with L-kynurenine (in words) (Kynureninase [7]): competitive inhibitor of the enzyme | inhibition of reaction with L-kynurenine (in words) (Kynureninase [7]; listed as (αS,γS)-diastereomer): strongly inhibited; also recorded: competitive inhibitors | Ki value (comparison in words) (Kynureninase [7]): lower | reactivity with kynureninase (in words) (Kynureninase [8]): not a substrate for the kynureninase | reactivity with kynureninase (in words) (Kynureninase [8]; listed as (αS,γS) diastereomer): unreactive | reactivity with kynureninase (in words) (Kynureninase [8]; listed as (αS,γS)-diastereomer): No significant reaction | inhibition of rat liver kynureninase (in words) (rat liver kynureninase [9]; listed as (αS,γS) diastereomer): stronger competitive inhibitor | inhibition of rat liver kynureninase (in words) (rat liver kynureninase [9]; listed as (αS,δS)): inhibit the reaction of rat liver kynureninase | Ki (rat liver kynureninase [9]; rat liver kynureninase): ~690 µM

NOCC(=O)O [aminooxyacetic acid]
inhibition of β-lyase (in words) [10]: inhibitor of the β-lyase | inhibition of cystsine lyase (in words) (cystsine lyase): most inhibitory derivative tested

N[C@@H](CSCc1ccccc1)C(=O)O [S-benzyl-L-cysteine]
β-lyase-mediated metabolism (in words) [10]: cleaved to give pyruvate

B1: Kynureninase (Pseudomonas fluorescens) (protein)
chain: T1 sequence (P83788 1-416)
notes: Bacterial kynureninase was prepared from cells of Pseudomonas fluorescens; endogenous in cells; partially purified by DEAE-cellulose and ammonium sulfate
Km [11]: 25 µM
